For test [1], the system named is P388. Nature of the test: Cytotoxicity against P388 cells is the dose giving 50% decrease in the formation of formazan dye. The test is classed as functional, cell-based. The conditions noted are these: Mus musculus.
The subject of test [2] is P388. In words: Dose giving a 50% decrease in the living cell number (P388 cells). The test is classed as functional. Conditions: Mus musculus, read-out: LD50 (the source's name).
For test [3], the system named is J774. Nature of the test: Cytotoxicity against J774 cells is the dose giving 50% decrease in the formation of formazan dye. The test is classed as functional, cell-based. Conditions: Mus musculus.
The test system of test [4] is HL-60. In words: Dose giving a 50% decrease in the living cell number (HL-60 cells). The test is classed as functional. The conditions noted are these: Homo sapiens, read-out: LD50 (the source's name).
For test [5], the system named is A-431. In words: Cytotoxicity against […] cells is the dose giving 50% decrease in the formation of formazan dye. The test is classed as functional, cell-based. Conditions: Homo sapiens.
Test [6] has as its system HL-60. In words: Cytotoxicity against HL-60 cells is the dose giving 50% decrease in the formation of formazan dye. The test is classed as functional, cell-based. Conditions: Homo sapiens.
For test [7], the system named is ECV-304. In words: Dose giving a 50% decrease in the living cell number (ECV-304 cells). The test is classed as functional. The conditions noted are these: Homo sapiens, read-out: LD50 (the source's name).
Test [8] concerns ECV-304. In words: Cytotoxicity against ECV-304 cells is the dose giving 50% decrease in the formation of formazan dye. The test is classed as functional, cell-based. Conditions: Homo sapiens.
Test [9] concerns A-431. Nature of the test: Dose giving a 50% decrease in the living cell number ([…] cells). The conditions noted are these: Homo sapiens, read-out: LD50 (the source's name). The test is classed as functional.
Test [10] relates to J774. In words: Dose giving a 50% decrease in the living cell number (J774 cells). The test is classed as functional. Conditions: Mus musculus, read-out: LD50 (the source's name).

In turn, `Cc1csc2ncnc(NCCc3ccccc3)c12` registered a half-inhibitory concentration (IC50) in [1] of 0.029 µM. For the same molecule, the CC50 in [2] turned out to be 43 µM.
For `Cc1csc2ncnc(NCCc3ccc(O)cc3)c12`, in that order: 0.19 µM and 86 µM.
For `Clc1ccc(CCNc2ncnc3sccc23)cc1`, in that order: 0.035 µM and 73 µM.
As for `Cc1csc2ncnc(NCc3ccc(Cl)cc3)c12`, the IC50 in test [1] came out at 0.17 µM. In addition, the CC50 in test [2] came out at 74 µM.
In test [1], `Cc1csc2ncnc(NCCc3ccc(F)cc3)c12` returned an IC50 of 0.029 µM. In [2], the CC50 amounted to 68 µM.
For `COc1ccc(CCNc2ncnc3scc(C)c23)cc1`, in that order: 0.0074 µM and 46 µM.
Take `Cc1csc2ncnc(NCCc3ccc(Cl)cc3)c12`: the IC50 came to 0.0052 µM in [1]; 0.005 µM in test [3]; 20 µM in test [5]; 0.0085 µM in [6]; 34 µM in test [8]. The CC50 in [4] stood at 67 µM; in test [7], 53 µM; in test [2] it was 35 µM; in [9] it was 51 µM; in test [10], 43 µM.
In turn, `Clc1ccc(CCNc2ncnc3ccsc23)cc1` registered an IC50 in test [1] of 0.029 µM. Further, the CC50 in test [2] turned out to be 41 µM.
With `Clc1ccc(CCNc2[nH]cnc3ncnc2-3)cc1`, in test [1], the IC50 was 7.3 µM. Further, in [2], the CC50 stood at 96 µM.
The like results for `Cc1csc2ncnc(NCCC(=O)O)c12` were, in that order, 12 µM and 250 µM.
For `Cc1csc2ncnc(NCCc3ccc(Br)cc3)c12`, in that order: 0.0011 µM and 58 µM.
In test [1], `Cc1csc2ncnc(Cl)c12` had an IC50 of 33 µM. For the same molecule, the CC50 in test [2] was 490 µM.
Regarding `CCCNc1ncnc2scc(C)c12`, in test [1], the IC50 came to 5.5 µM. In [2], the CC50 was determined as 85 µM.
For `Cc1csc2ncnc(NCCCc3ccc(Cl)cc3)c12`, in [1], the IC50 stood at 1.3 µM. Also, the CC50 in test [2] was found to be 98 µM.
For `Cc1csc2ncnc(NCCc3ccc(N)cc3)c12`, in that order: 0.022 µM and 39 µM.

What is called IC50 is the concentration that inhibits the measured activity by half. Read a low IC50 as inhibition by little substance.
